Measurements reported in article PMC9776540, “Therapeutic Potential of a Water-Soluble Silver-Diclofenac Coordination Polymer on 3D Pancreatic Cancer Spheroids” (Journal of Medicinal Chemistry, 2022).
Structures can show the parent of a compound that is named as a salt.

Tests used:
A549 [1] = experiment: MTT cytotoxicity assay (IC50); format: cell-based, human; conditions: Homo sapiens; A549, after 72 h incubation, MTT, vs untreated control cells; read-out: IC50
Protocol: (§1) MCF7 cell line (human breast adenocarcinoma, morphology: epithelial-like, ATCC: HTB-22), A549 cell […]
(§2) keratinocyte, morphology: epidermal, CSL Cell Lines Service GmbH); were cultured in Dulbecco’s Modified Eagle’s Medium (DMEM, Corning) with phenol red, supplemented with 10% fetal bovine serum (FBS) and with 1% streptomycin/penicillin. […]
(§3) from metastatic site: brain, ATCC: HTB-81) and MCR-5 cell line (primary line of human pulmonary […]
(§4) 10% fetal bovine serum (FBS). Cultures were incubated at 37 °C under a humidified atmosphere containing 5% CO2. Cells were transferred using a solution containing 0.05% trypsin and 0.5 mM EDTA.
(§5) All media and other ingredients were purchased from ALAB, Poland.
(§6) Cytotoxicity was assessed by MTT assay performed according the protocols described elsewhere.S1 In brief, 1×10^4 cells per well, seeded in 96-well flat bottom microtiter plate, were incubated with the tested compounds (in the appropriate media) at various range of concentrations for 24 h. After that time, solutions of compounds were washed out, cells were washed three times with PBS and fresh medium was applied. After next 72 h cell viability was determined using the Hill equation (Origin 9.0) with regard to the untreated cells (control), where y0 – untreated cell control (which was set to 100% viability), y100 – a lysis control (where the cells were treated with 0.5% triton X-100 was set to 0% […]
(§7) [c] at which the viability of the cells reaches 50%, H – the Hill coefficient (describing cooperativity):
(§8) Each compound concentration was tested in five replicates and repeated at least three times.
(§9) Determined values of IC50 are given as mean + S.D. (Standard Deviation).
(§10) Cisplatin was tested as a reference anticancer drug. […]

DU-145 [2] = experiment: MTT cytotoxicity assay (IC50); format: cell-based, human; conditions: Homo sapiens; DU-145, after 72 h incubation, MTT, vs untreated control cells; read-out: IC50
Protocol: as §1, §2, §3, §4, §5, §6, §7, §8, §9, §10

HaCat [3] = experiment: MTT cytotoxicity assay (IC50); format: cell-based, human; conditions: Homo sapiens; HaCat normal cells, after 72 h incubation, MTT, vs untreated control cells; read-out: IC50
Protocol: as §1, §2, §3, §4, §5, §6, §7, §8, §9, §10

MCF7 = experiment: MTT cytotoxicity assay (IC50); format: cell-based, human; conditions: Homo sapiens; MCF7, after 72 h incubation, MTT, vs untreated control cells; read-out: IC50
Protocol: as §1, §2, §3, §4, §5, §6, §7, §8, §9, §10

MRC5 = experiment: MTT cytotoxicity assay (IC50); format: cell-based, human; conditions: Homo sapiens; MRC5 normal cells, after 72 h incubation, MTT, vs untreated control cells; read-out: IC50
Protocol: as §1, §2, §3, §4, §5, §6, §7, §8, §9, §10

PANC-1 [4] = experiment: MTT cytotoxicity assay (IC50); format: cell-based, human; conditions: Homo sapiens; PANC-1, after 72 h incubation, MTT, vs untreated control cells; read-out: IC50
Protocol: as §1, §2, §3, §4, §5, §6, §7, §8, §9, §10

A549 [5] = experiment: MTT survival test, surviving fraction (Table S3); format: cell-based, human
Protocol: (§11) 24, and 72 h. After each incubation time, the cells were washed with PBS. Then, fresh medium (supplemented with 10% FSB) was added, and the cells were incubated under standard conditions for another 24 h (6h + 24h, 24h + 24h, 72h + 24h). After this time, the MTT survival test was done. Surviving fraction given in % was estimated with relation to untreated cells. In the case of 6h + 24h and 24h + 24h approaches, the cells were seeded at 10 000 cells per well, while in the case of 72h + 24h at […]

DU-145 [6] = experiment: MTT survival test, surviving fraction (Table S3); format: cell-based, human
Protocol: as §11

HaCat [7] = experiment: MTT survival test, surviving fraction (Table S3); format: cell-based, human
Protocol: as §11

MCF-7 = experiment: MTT survival test, surviving fraction (Table S3); format: cell-based, human
Protocol: as §11

PANC-1 [8] = experiment: MTT survival test, surviving fraction (Table S3); format: cell-based, human
Protocol: as §11

PANC-1 cells = conditions: PANC-1, 1 at IC50, others at molar ratio 1:1:1, 72 h after treatment
Protocol: as §1, §2, §3, §4
All media and other ingredients were purchased from ALAB, Poland. […]
Acridine Orange (OA) and Propidium Iodide PI Staining
AO is a nucleic acid-binding fluorophore that is cell membrane permeable and suitable for selective staining of nucleated living cells. PI is a nucleic acid-binding dye that is impermeable to live cells and suitable for staining dead or dying nucleated cells. All live, nucleated cells fluoresce green due to AO, and dead, nucleated cells are stained with both AO and PI and fluoresce red. For analysis of 1-induced

pBR322 plasmid = experiment: DNA strand break analysis, agarose gel electrophoresis; format: biochemical; conditions: pBR322, 24 h, even at high concentration (500 μM)
Protocol: Then, the interaction between DNA and diclofenac, PTA, or 1 was evaluated by the gel electrophoresis of pBR322 plasmid to determine an ability to cause double- and/or single-strand DNA damages (Figure 6D). The double-strand damage may result in the appearance of different forms of DNA (linear form III and relaxed form II), which can be quantified by densitometry analysis (Figure 6E).
DNA Strand Break Analysis
The ability of 1, PTA and diclofenac to induce single- or double-strand breaks in plasmid DNA was tested
with the pBR322 plasmid (c = 0.5 mg/mL). All compounds were dissolved in water (c = 1 µM-500 µM).
After 1 h incubation at 37 °C, the reaction mixtures (20 μL) were mixed with 3 μL of loading buffer
(bromophenol blue in 30% glycerol) and loaded on 1% agarose gels, containing EB, in TBE buffer (90
mM Tris–borate, 20 mM EDTA, pH = 8.0). Gel electrophoresis was performed at a constant voltage of
100 V (4 V/cm) for 60 min. The gel was photographed and processed with a Digital Imaging System
(Syngen Biotech). For the densitometric analysis the UltraQuant 6.0 program was used.

[9] = comparison values, no method or reference printed at the place; cited from earlier work

O=C(O)Cc1ccccc1Nc1c(Cl)cccc1Cl [NaDf, diclofenac sodium salt]
IC50 (A549 [1]): 699 ± 7.1 µM | IC50 (DU-145 [2]): 803 ± 14.7 µM | IC50 (HaCat [3]): 1140 ± 18.3 µM | IC50 (MCF7): 978 ± 10.4 µM | IC50 (MRC5): 977.3 ± 5.9 µM | IC50 (PANC-1 [4]): 801 ± 124 µM | surviving fraction (A549 [5]; A549, 6h + 24h, dil. 10 000x (stocks: diclofenac 0.918, PTA 0.483, AgNO3 0.326 mg/mL)): 99.7 ± 4.3% | surviving fraction (A549 [5]; A549, 6h + 24h, dil. 100x (stocks: diclofenac 0.918, PTA 0.483, AgNO3 0.326 mg/mL)): 72.5 ± 6.8% | surviving fraction (A549 [5]; A549, 6h + 24h, dil. 1000x (stocks: diclofenac 0.918, PTA 0.483, AgNO3 0.326 mg/mL)): 88.7 ± 10.8% | surviving fraction (A549 [5]; A549, 24h + 24h, dil. 10 000x (stocks: diclofenac 0.918, PTA 0.483, AgNO3 0.326 mg/mL)): 98.5 ± 10.9% | surviving fraction (A549 [5]; A549, 24h + 24h, dil. 100x (stocks: diclofenac 0.918, PTA 0.483, AgNO3 0.326 mg/mL)): 70.9 ± 8.9% | surviving fraction (A549 [5]; A549, 24h + 24h, dil. 1000x (stocks: diclofenac 0.918, PTA 0.483, AgNO3 0.326 mg/mL)): 81.8 ± 6.8% | surviving fraction (A549 [5]; A549, 72h + 24h, dil. 10 000x (stocks: diclofenac 0.918, PTA 0.483, AgNO3 0.326 mg/mL)): 89.5 ± 8.2% | surviving fraction (A549 [5]; A549, 72h + 24h, dil. 100x (stocks: diclofenac 0.918, PTA 0.483, AgNO3 0.326 mg/mL)): 67.7 ± 6.5% | surviving fraction (A549 [5]; A549, 72h + 24h, dil. 1000x (stocks: diclofenac 0.918, PTA 0.483, AgNO3 0.326 mg/mL)): 78.5 ± 7.6% | surviving fraction (DU-145 [6]; Du-145, 6h + 24h, dil. 10 000x (stocks: diclofenac 0.918, PTA 0.483, AgNO3 0.326 mg/mL)): 99.5 ± 8.2% | surviving fraction (DU-145 [6]; Du-145, 6h + 24h, dil. 100x (stocks: diclofenac 0.918, PTA 0.483, AgNO3 0.326 mg/mL)): 78.2 ± 5.6% | surviving fraction (DU-145 [6]; Du-145, 6h + 24h, dil. 1000x (stocks: diclofenac 0.918, PTA 0.483, AgNO3 0.326 mg/mL)): 87.7 ± 9.8% | surviving fraction (DU-145 [6]; Du-145, 24h + 24h, dil. 10 000x (stocks: diclofenac 0.918, PTA 0.483, AgNO3 0.326 mg/mL)): 99.5 ± 10.7% | surviving fraction (DU-145 [6]; Du-145, 24h + 24h, dil. 100x (stocks: diclofenac 0.918, PTA 0.483, AgNO3 0.326 mg/mL)): 78.7 ± 7.6% | surviving fraction (DU-145 [6]; Du-145, 24h + 24h, dil. 1000x (stocks: diclofenac 0.918, PTA 0.483, AgNO3 0.326 mg/mL)): 88.4 ± 6.7% | surviving fraction (DU-145 [6]; Du-145, 72h + 24h, dil. 10 000x (stocks: diclofenac 0.918, PTA 0.483, AgNO3 0.326 mg/mL)): 88.7 ± 6.1% | surviving fraction (DU-145 [6]; Du-145, 72h + 24h, dil. 100x (stocks: diclofenac 0.918, PTA 0.483, AgNO3 0.326 mg/mL)): 70.8 ± 7.9% | surviving fraction (DU-145 [6]; Du-145, 72h + 24h, dil. 1000x (stocks: diclofenac 0.918, PTA 0.483, AgNO3 0.326 mg/mL)): 71.4 ± 8.5% | surviving fraction (HaCat [7]; 6h + 24h, dil. 10 000x (stocks: diclofenac 0.918, PTA 0.483, AgNO3 0.326 mg/mL)): 99.6 ± 10.8% | surviving fraction (HaCat [7]; 6h + 24h, dil. 100x (stocks: diclofenac 0.918, PTA 0.483, AgNO3 0.326 mg/mL)): 86.5 ± 11.7% | surviving fraction (HaCat [7]; 6h + 24h, dil. 1000x (stocks: diclofenac 0.918, PTA 0.483, AgNO3 0.326 mg/mL)): 92.5 ± 9.1% | surviving fraction (HaCat [7]; 24h + 24h, dil. 10 000x (stocks: diclofenac 0.918, PTA 0.483, AgNO3 0.326 mg/mL)): 99.3 ± 12.8% | surviving fraction (HaCat [7]; 24h + 24h, dil. 100x (stocks: diclofenac 0.918, PTA 0.483, AgNO3 0.326 mg/mL)): 88.8 ± 5.8% | surviving fraction (HaCat [7]; 24h + 24h, dil. 1000x (stocks: diclofenac 0.918, PTA 0.483, AgNO3 0.326 mg/mL)): 99.2 ± 6.8% | surviving fraction (HaCat [7]; 72h + 24h, dil. 10 000x (stocks: diclofenac 0.918, PTA 0.483, AgNO3 0.326 mg/mL)): 102.3 ± 11.2% | surviving fraction (HaCat [7]; 72h + 24h, dil. 100x (stocks: diclofenac 0.918, PTA 0.483, AgNO3 0.326 mg/mL)): 88.4 ± 5.2% | surviving fraction (HaCat [7]; 72h + 24h, dil. 1000x (stocks: diclofenac 0.918, PTA 0.483, AgNO3 0.326 mg/mL)): 99.2 ± 5.9% | surviving fraction (MCF-7; MCF-7, 6h + 24h, dil. 10 000x (stocks: diclofenac 0.918, PTA 0.483, AgNO3 0.326 mg/mL)): 102.6 ± 13.4% | surviving fraction (MCF-7; MCF-7, 6h + 24h, dil. 100x (stocks: diclofenac 0.918, PTA 0.483, AgNO3 0.326 mg/mL)): 78.6 ± 12.3% | surviving fraction (MCF-7; MCF-7, 6h + 24h, dil. 1000x (stocks: diclofenac 0.918, PTA 0.483, AgNO3 0.326 mg/mL)): 89.5 ± 9.8% | surviving fraction (MCF-7; MCF-7, 24h + 24h, dil. 10 000x (stocks: diclofenac 0.918, PTA 0.483, AgNO3 0.326 mg/mL)): 98.2 ± 9.8% | surviving fraction (MCF-7; MCF-7, 24h + 24h, dil. 1000x (stocks: diclofenac 0.918, PTA 0.483, AgNO3 0.326 mg/mL)): 88.7 ± 10.6% | surviving fraction (MCF-7; MCF-7, 72h + 24h, dil. 10 000x (stocks: diclofenac 0.918, PTA 0.483, AgNO3 0.326 mg/mL)): 97.8 ± 7.7% | surviving fraction (MCF-7; MCF-7, 72h + 24h, dil. 1000x (stocks: diclofenac 0.918, PTA 0.483, AgNO3 0.326 mg/mL)): 85.4 ± 5.3% | surviving fraction (PANC-1 [8]; PANC-1, 6h + 24h, dil. 10 000x (stocks: diclofenac 0.918, PTA 0.483, AgNO3 0.326 mg/mL)): 98.6 ± 7.8% | surviving fraction (PANC-1 [8]; PANC-1, 6h + 24h, dil. 100x (stocks: diclofenac 0.918, PTA 0.483, AgNO3 0.326 mg/mL)): 75.3 ± 6.4% | surviving fraction (PANC-1 [8]; PANC-1, 6h + 24h, dil. 1000x (stocks: diclofenac 0.918, PTA 0.483, AgNO3 0.326 mg/mL)): 84.5 ± 9.8% | surviving fraction (PANC-1 [8]; PANC-1, 24h + 24h, dil. 10 000x (stocks: diclofenac 0.918, PTA 0.483, AgNO3 0.326 mg/mL)): 89.5 ± 9.9% | surviving fraction (PANC-1 [8]; PANC-1, 24h + 24h, dil. 100x (stocks: diclofenac 0.918, PTA 0.483, AgNO3 0.326 mg/mL)): 71.2 ± 6.5% | surviving fraction (PANC-1 [8]; PANC-1, 24h + 24h, dil. 1000x (stocks: diclofenac 0.918, PTA 0.483, AgNO3 0.326 mg/mL)): 82.4 ± 7.7% | surviving fraction (PANC-1 [8]; PANC-1, 72h + 24h, dil. 10 000x (stocks: diclofenac 0.918, PTA 0.483, AgNO3 0.326 mg/mL)): 89.4 ± 6.3% | surviving fraction (PANC-1 [8]; PANC-1, 72h + 24h, dil. 100x (stocks: diclofenac 0.918, PTA 0.483, AgNO3 0.326 mg/mL)): 68.5 ± 6.9% | surviving fraction (PANC-1 [8]; PANC-1, 72h + 24h, dil. 1000x (stocks: diclofenac 0.918, PTA 0.483, AgNO3 0.326 mg/mL)): 80.3 ± 4.1% | cytotoxicity seen by AO/PI staining (PANC-1 cells): did not induce visible cytotoxicity | degradation of plasmid DNA (pBR322 plasmid): no degradation of DNA | log P [9]: 1.4
